Experimental findings from ChEMBL document CHEMBL3632595, “Constituents of the seeds of Cassia tora with inhibitory activity on soluble expoxide hydrolease” (Bioorg Med Chem Lett, 2015) are described below.

By inhibition is commonly meant the relative decrease from the control value, in per cent. A low value points to little suppression. The IC50 is the concentration that inhibits the measured activity by half. For orientation: Ki means a dissociation constant, usually derived from enzyme kinetics or from competition with a known ligand.

Each structure is given as a SMILES string.

For assay [1], the target named is T1, Bifunctional epoxide hydrolase 2 (Homo sapiens) (UniProt P34913).
T1 sequence (whole entry): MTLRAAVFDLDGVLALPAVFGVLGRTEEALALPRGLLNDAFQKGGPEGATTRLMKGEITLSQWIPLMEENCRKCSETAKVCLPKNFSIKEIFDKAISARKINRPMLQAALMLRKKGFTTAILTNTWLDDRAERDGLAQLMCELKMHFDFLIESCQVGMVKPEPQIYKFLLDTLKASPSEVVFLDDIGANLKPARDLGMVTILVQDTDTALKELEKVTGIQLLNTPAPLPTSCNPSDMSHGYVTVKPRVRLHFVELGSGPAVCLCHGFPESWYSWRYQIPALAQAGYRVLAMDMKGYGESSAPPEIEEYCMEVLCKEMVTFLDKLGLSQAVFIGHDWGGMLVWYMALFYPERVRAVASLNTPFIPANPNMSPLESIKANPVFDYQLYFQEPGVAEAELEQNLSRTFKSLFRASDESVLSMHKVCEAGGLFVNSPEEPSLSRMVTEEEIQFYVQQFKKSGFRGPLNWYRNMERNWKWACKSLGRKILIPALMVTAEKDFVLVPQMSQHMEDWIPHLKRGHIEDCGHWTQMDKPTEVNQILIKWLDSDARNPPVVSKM
Conditions: at 50 µM.
Description: Inhibition of sEH (unknown origin) assessed as 6-methoxy-2-naphthaldehyde formation at 50 uM by fluorometry assay using 40 uM cyano-(6-methoxy-naphthalen-2-yl)-methyl ester as substrate

Assay [2] addresses T2, Bifunctional epoxide hydrolase 2 (Homo sapiens, UniProt P34913).
T2 sequence (P34913 whole entry): T1 sequence (whole entry)
Nature of the assay: Inhibition of sEH (unknown origin) assessed as 6-methoxy-2-naphthaldehyde formation by fluorometry assay using 40 uM cyano-(6-methoxy-naphthalen-2-yl)-methyl ester as substrate.

Assay [3] concerns the target T2, Bifunctional epoxide hydrolase 2. As to the kind of experiment: Reversible-uncompetitive inhibition of sEH (unknown origin) by Lineweaver-Burk plot.

As to `COc1c(O[C@@H]2O[C@H](CO)[C@@H](O)[C@H](O)[C@H]2O)c(C)cc2c1C(=O)c1c(O)cccc1C2=O`, the inhibition in assay [1] was 50.6%. Also, the half-inhibitory concentration (IC50) in assay [2] is 24.3 µM. For the compound `Cc1cc(O)c2c(c1)C(=O)c1cccc(O)c1C2=O`, the inhibition in assay [1] stood at 38.1%.

`Cc1cc(O)c2c(c1)C(=O)c1cc(O)cc(O)c1C2=O` [EMODIN] returned an inhibition in assay [1] of 56.4%. The IC50 in assay [2] was 36.4 µM. In turn, `COc1cc2c(c(O)c1OC)C(=O)c1c(cc(C)c(O)c1OC)C2=O` registered an inhibition in assay [1] of 55.1%. In assay [2], the IC50 was found to be 26.4 µM. As to `COc1cc(O[C@@H]2O[C@H](CO[C@@H]3O[C@H](CO)[C@@H](O)[C@H](O)[C@H]3O)[C@@H](O)[C@H](O)[C@H]2O)c2c(c1)C(=O)c1cc(C)cc(O)c1C2=O`, in assay [1], the inhibition is 51%. For the same compound, the IC50 in assay [2] was found to be 40.6 µM. Compound `COc1c(O)c(C)cc2c1C(=O)c1c(O)cccc1C2=O` yielded an inhibition in assay [1] of 2.6%. Turning to `COc1cc2c(c(OC)c1OC)C(=O)c1c(cc(C)c(O[C@@H]3O[C@H](CO)[C@@H](O)[C@H](O)[C@H]3O)c1OC)C2=O`, the inhibition in assay [1] was 28.6%. On the same count and under the same terms, the value for `COc1cc(O)c2c(c1)C(=O)c1cc(C)cc(O)c1C2=O` was 27.1%. In assay [1], `COc1c(O[C@@H]2O[C@H](CO)[C@@H](O)[C@H](O)[C@H]2O)cc2c(c1O)C(=O)c1c(cc(C)c(O)c1OC)C2=O` gave an inhibition of 57.7%. The IC50 in assay [2] worked out at 33 µM. For `COc1cc(O[C@@H]2O[C@H](CO)[C@@H](O)[C@H](O)[C@H]2O)c2c(OC)c(C(C)=O)c(O[C@H]3OC[C@@](O)(CO)[C@@H]3O)cc2c1`, in assay [3], the affinity, expressed as Ki, was 0.6 µM. The compound also yielded an inhibition in assay [1] of 91.6%. Moreover, in assay [2], the IC50 came to 2.2 µM. As to `COc1cc(O[C@@H]2O[C@H](CO[C@@H]3O[C@H](CO)[C@@H](O)[C@H](O)[C@H]3O)[C@@H](O)[C@H](O)[C@H]2O)c2c(O)c3c(=O)oc(C)cc3cc2c1`, the inhibition in assay [1] turned out to be 67.6%. In addition, in assay [2], the IC50 amounted to 20 µM.

Compound `COc1cc2c(c(OC)c1OC)C(=O)c1c(cc(C)c(O)c1OC)C2=O` [CHRYSOOBTUSIN] yielded an inhibition in assay [1] of 59.8%. The IC50 in assay [2] is 26.3 µM. Turning to `COc1cc(O[C@@H]2O[C@H](CO)[C@@H](O)[C@H](O)[C@H]2O)c2c(O)c3c(=O)cc(C)oc3cc2c1`, the inhibition in assay [1] was 38.1%. On the same count and under the same terms, for `COc1c(O)cc2c(c1O)C(=O)c1c(cc(C)c(O)c1OC)C2=O` the value was 0%. Compound `COc1cc(O[C@@H]2O[C@H](CO[C@@H]3O[C@H](CO)[C@@H](O)[C@H](O)[C@H]3O)[C@@H](O)[C@H](O)[C@H]2O)c2c(O)c3c(=O)cc(C)oc3cc2c1` had an inhibition in assay [1] of 50.9%. Further, the IC50 in assay [2] was found to be 37.5 µM.

On to `COc1ccc2c(c1O)C(=O)c1c(cc(C)c(O)c1OC)C2=O`, for which, in assay [1], the inhibition turned out to be 54.2%. Besides, the IC50 in assay [2] amounted to 35.7 µM.
